Structures can show the parent of a compound that is named as a salt.
Biological target: PDEIV
Assay: Inhibitory activity towards phosphodiesterase type IV isozyme ([3H] cAMP substrate, in the presence of 10 μM cilostazol)
Format: biochemical
Settings: type IV isozyme from porcine artery, 30° C.

CCCCOc1cc(CC2CNC(=O)N2)ccc1OC (stereo not drawn) [Ro20-1724, reference compound]
IC50 (pH 7.5): 26.1 µM

CCOc1ccc(CC2=NCCc3cc(OCC)c(OCC)cc32)cc1OCC [Compound 6, 1-(3',4'-Diethoxybenzyl)-6,7-diethoxy-3,4-dihydroisoquinolinium-theophylline-7-acetate monohydrate]
IC50 (pH 7.5, monohydrate): 17.2 µM

CCOc1ccc(CC2=NCCc3cc(OCC)c(OCC)cc32)cc1OCC [Compound 4, 1-(3',4'-Diethoxybenzyl)-6,7-diethoxy-3,4-dihydroisoquinoline hydrochloride]
IC50 (pH 7.5, hydrochloride): 8.1 µM
